Columns and labels:
GSK-3β [1] = target: T1, GSK-3β (Homo sapiens, UniProt P49841); test: biochemical
Experimental: (§1) We evaluated the pharmacological properties of the compounds in vitro against GSK-3β using the GSK-3β Kinase Enzyme System followed by ADP-Glo bioluminescent assay.[50] The principle of the assay is to determine the amount of ADP formed from ATP in the kinase reaction. […] Additionally, compounds 11 and 36 in complex with GSK-3β were analyzed by the proteins’ melting temperature determination using Thermal Shift Assay (see Figure S1 in the SI).
The inhibitory activities of the tested compounds against the GSK-3β human recombinant kinase were measured using Promega’s GSK-3β Kinase Enzyme System (Promega; Madison, WI, USA), according to the provided manufacturer’s instruction, using the low-volume white polystyrene 384-well plates. The ADP-Glo Assay (Promega; Madison, WI, USA) was used for bioluminescent detection of the kinase activity. Tested compounds were prepared as 1 mM stock solutions in DMSO and diluted with the Kinase Assay Buffer before use (40 mM Tris, pH 7.5, enriched with 50 μM dithiothreitol; DTT) to obtain the desired compounds’ concentrations. The kinase enzyme, GSK-3β-substrate (derived from human muscle glycogen synthase 1), and ATP were also diluted in the assay buffer before use. At first, GSK-3β (10 ng per well) was incubated with the tested sample (10 μM in well) for 5 min. In the case of blank wells, the DMSO solution (1% in well) was used instead of the target samples’ solutions. After the incubation period, ATP (25 μM in well) and GSK-3β-substrate (0.2 μg/μL in well) were added to start the enzymatic reaction. The reaction mixture was kept at room temperature for 1 h, followed by the addition of the ADP-Glo reagent, to terminate the kinase reaction and deplete any remaining ATP. After the following 40 min—a second reagent (Kinase Detection Reagent) was applied to convert the obtained ADP to ATP and to generate light from the newly synthesized ATP using a luciferase/luciferin reaction. The mixture was kept for another 30 min at room temperature, then the luminescence was measured. Based on equation 100 – (S/B) × 100 (where S and B were the respective enzyme activities with and without the tested sample, respectively) the percent of inhibition of GSK-3β for each compound was calculated. […] Calculations were made using nonlinear regression (GraphPad Prism 9; GraphPad Software, San Diego, CA, USA) by plotting the residual enzyme activities against the applied inhibitor concentration. […] Each data point was collected in triplicate.

GSK-3β [2] = target: T1, GSK-3β; test: biochemical; conditions: read-out: increase of the melting point of the protein
Experimental: as §1

BV-2 cell line = test: NO release in LPS-treated BV-2 cells (DAN fluorometric assay); format: cell-based, mouse; conditions: compound 10 μM; LPS 100 ng/mL
Experimental: Cell viability was determined by Presto Blue assay after 24 h. (B) Effect of compounds 11, 34, and 36 (0.1, 1, 10 μM) on NO-release (%) in LPS-treated (100 ng/mL) BV-2 cell line. NO-release was measured using a fluorometric assay with 2,3-diaminonaphthalene (DAN). (C, D) Effects of compounds 11 and 36 (0.1, 1, 10 μM) on IL-6 and TNF-α release in LPS-treated (100 ng/mL) BV-2 cell line. The IL-6 and TNF-α levels were measured using LANCE Ultra TR-FRET Detection Kit (PerkinElmer). Statistical analysis was performed using GraphPad Prism 9.0.0. All values are expressed as mean with SD. Differences among groups were evaluated by one-way ANOVA followed by posthoc analysis (Dunnett’s multiple comparison tests) vs. control group (LPS on BV-2 cells and okadaic acid on HT-22 cells) and were considered statistically significant if p < 0.05 (*p < 0.05, **p < 0.01, ***p < 0.001, and ****p < 0.0001).
An important role in the pathogenesis of AD has been attributed to neuroinflammation resulting from the activation of astrocytes and microglial cells.[55] These processes lead to increased production of proinflammatory cytokines such as TNF-α or IL-6 that activate processes, e.g., tau hyperphosphorylation, causing injury and cell death.[56] A standard model of neuroinflammation is based on lipopolysaccharide-stimulated BV-2 microglial cells. In this study, we used this model to evaluate the anti-inflammatory properties of compounds 11, 34, and 36.[57] Our evaluation focused on monitoring the levels of key inflammatory markers, including nitric oxide (NO, Figure 6B) and cytokines, TNF-α and IL-6 (Figure 6C,D).
The cells were pretreated with tested compounds for 1 h. […]
The NO level in the culture supernatants was measured using 2,3-diaminonaphthalene (DAN) reagent according to the method of Nussler et al.[88] After 15 min of incubation at room temperature, the fluorescence intensity (EX 360; EM 440 nm) was measured using a microplate reader POLARstar Omega, (BMG Labtech). The values of nitric oxide were calculated as a percentage of control (maximal response of LPS).

in vitro = conditions: PAMPA
CDK2/cyclinA = target: T2, CDK2/cyclinA (Homo sapiens, UniProt P24941); test: Kinase selectivity, radiometric [Km ATP] KinaseProfiler; format: biochemical
T2 construct: purchased Eurofins (KinaseProfiler service)
Experimental: (§2) We selected those kinases with the greatest potential for interaction based on structural homology, as indicated by the ChemPartner panel.
(§3) Figure 7 Kinase selectivity for compound 36. Data are presented as percent of kinases’ activity in the presence of 1 μM of compound 36. Kinases’ panel (CMGC group, human enzymes): CDK1/cyclinB, CDK2/cyclinA, CDK4/cyclinD3, CDK6/cyclinD3, CDK7/cyclinH/MAT1, CDK9/cyclinT1, DYRK1A, DYRK1B, GSK-3α, GSK-3β, JNK2α2, JNK3, MAPK1, MAPK2, SAPK2a(T106M), SAPK2b, SAPK3.
(§4) Selectivity studies were performed at Eurofins in Kinase Enzymatic Radiometric [Km ATP]
(§5) Kinase Profiler Lead Hunter Assay. The percentage of enzymatic activity was measured at the
(§6) concentration of 1 µM of compound 36 in duplicate for 17 selected kinases.
(§7) Table S12. Inhibitory activity of compound 36 against selected kinases.
(§8) *Where n = 2, the value reported here is actually range / √ 2.

CDK4/cyclinD3 = target: T3, CDK4/cyclinD3 (Homo sapiens, UniProt P11802); test: as above; format: biochemical
T3 construct: purchased Eurofins (KinaseProfiler service)
T3 sequence (P11802 whole entry): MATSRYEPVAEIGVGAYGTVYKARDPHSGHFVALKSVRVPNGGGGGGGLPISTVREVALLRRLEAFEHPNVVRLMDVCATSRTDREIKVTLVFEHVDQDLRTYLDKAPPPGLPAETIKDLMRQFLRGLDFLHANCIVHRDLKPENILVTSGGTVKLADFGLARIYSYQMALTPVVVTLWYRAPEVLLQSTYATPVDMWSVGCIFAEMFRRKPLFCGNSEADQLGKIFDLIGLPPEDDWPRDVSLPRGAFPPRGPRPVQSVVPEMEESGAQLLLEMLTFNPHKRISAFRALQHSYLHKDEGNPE
T3 sequence (P30281 whole entry partner): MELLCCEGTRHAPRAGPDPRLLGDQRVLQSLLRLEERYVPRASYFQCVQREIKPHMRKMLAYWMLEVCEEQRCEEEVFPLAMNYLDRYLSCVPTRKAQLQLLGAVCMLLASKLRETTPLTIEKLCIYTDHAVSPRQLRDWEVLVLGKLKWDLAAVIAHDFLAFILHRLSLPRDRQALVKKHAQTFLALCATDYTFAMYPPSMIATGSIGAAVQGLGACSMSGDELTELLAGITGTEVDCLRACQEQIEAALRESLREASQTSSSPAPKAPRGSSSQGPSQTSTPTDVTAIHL
Experimental: as §2, §3, §4, §5, §6, §7, §8

CDK9/cyclin T1 = target: T4, CDK9/cyclin T1 (Homo sapiens, UniProt P50750); test: as above; format: biochemical
T4 construct: purchased Eurofins (KinaseProfiler service)
T4 sequence (P50750 whole entry): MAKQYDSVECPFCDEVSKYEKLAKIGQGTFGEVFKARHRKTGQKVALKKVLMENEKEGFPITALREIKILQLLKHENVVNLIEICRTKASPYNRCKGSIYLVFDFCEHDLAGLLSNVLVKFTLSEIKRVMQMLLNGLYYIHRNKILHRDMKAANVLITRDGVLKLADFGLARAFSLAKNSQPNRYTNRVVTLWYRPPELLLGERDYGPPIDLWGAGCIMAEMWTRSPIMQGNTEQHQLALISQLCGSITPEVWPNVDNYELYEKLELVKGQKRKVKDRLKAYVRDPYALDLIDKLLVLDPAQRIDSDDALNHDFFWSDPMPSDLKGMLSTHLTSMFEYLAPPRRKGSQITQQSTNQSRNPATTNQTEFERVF
T4 sequence (O60563 whole entry partner): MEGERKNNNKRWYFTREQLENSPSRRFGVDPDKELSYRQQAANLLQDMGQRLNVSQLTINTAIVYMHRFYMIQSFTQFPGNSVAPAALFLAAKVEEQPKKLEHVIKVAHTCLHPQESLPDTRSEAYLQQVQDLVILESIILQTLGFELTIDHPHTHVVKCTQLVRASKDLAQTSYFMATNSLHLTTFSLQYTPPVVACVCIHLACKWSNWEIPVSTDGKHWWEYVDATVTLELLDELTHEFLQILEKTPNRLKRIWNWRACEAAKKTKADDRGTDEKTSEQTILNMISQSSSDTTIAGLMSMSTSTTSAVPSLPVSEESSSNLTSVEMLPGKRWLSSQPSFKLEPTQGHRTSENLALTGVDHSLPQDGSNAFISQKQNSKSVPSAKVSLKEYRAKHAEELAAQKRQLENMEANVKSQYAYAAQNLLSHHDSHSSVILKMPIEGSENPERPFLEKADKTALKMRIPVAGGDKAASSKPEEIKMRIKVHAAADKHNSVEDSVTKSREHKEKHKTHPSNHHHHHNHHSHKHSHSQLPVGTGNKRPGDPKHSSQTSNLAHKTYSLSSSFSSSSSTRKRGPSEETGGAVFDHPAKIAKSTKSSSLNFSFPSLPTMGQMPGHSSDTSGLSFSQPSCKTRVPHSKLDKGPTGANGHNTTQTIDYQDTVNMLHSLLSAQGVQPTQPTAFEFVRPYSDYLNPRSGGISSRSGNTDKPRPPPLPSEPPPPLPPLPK
Experimental: as §2, §3, §4, §5, §6, §7, §8

JNK2α2 = target: T5, JNK2α2 (Homo sapiens, UniProt P45984); test: as above; format: biochemical
T5 construct: purchased Eurofins (KinaseProfiler service)
T5 sequence (P45984 whole entry): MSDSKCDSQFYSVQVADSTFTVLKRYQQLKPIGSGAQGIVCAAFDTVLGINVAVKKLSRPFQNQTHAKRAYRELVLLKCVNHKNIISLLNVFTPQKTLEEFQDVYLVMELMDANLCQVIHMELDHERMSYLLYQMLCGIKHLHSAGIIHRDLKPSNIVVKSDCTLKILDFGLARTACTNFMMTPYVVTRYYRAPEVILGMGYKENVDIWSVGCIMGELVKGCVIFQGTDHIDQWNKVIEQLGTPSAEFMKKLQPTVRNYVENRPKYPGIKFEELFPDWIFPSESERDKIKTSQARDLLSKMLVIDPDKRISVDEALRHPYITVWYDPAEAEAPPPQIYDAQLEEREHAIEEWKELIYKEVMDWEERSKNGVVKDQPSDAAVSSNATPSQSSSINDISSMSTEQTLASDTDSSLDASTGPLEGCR
Experimental: as §2, §3, §4, §5, §6, §7, §8

MAPK2 = target: T6, MAPK2 (Homo sapiens, UniProt P28482); test: as above; format: biochemical
T6 construct: purchased Eurofins (KinaseProfiler service)
T6 sequence (P28482 whole entry): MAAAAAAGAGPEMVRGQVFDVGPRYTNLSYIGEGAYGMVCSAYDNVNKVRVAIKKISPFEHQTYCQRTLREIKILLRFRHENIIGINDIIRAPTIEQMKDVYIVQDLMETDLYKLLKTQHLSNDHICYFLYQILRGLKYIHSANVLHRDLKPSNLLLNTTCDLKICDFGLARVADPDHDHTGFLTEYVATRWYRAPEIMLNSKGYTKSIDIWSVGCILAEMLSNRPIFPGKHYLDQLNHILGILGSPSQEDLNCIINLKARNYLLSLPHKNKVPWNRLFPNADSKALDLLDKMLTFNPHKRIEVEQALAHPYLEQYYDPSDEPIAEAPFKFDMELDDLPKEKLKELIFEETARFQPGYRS
Experimental: as §2, §3, §4, §5, §6, §7, §8

Row | SMILES | IC50 (GSK-3β [1]) [nM] | ΔTm at 10 µM (GSK-3β [2]) [°C] | NO release (BV-2 cell line) | Papp (in vitro) [×10⁻⁶ cm/s] | inhibition at 1 µM (CDK2/cyclinA) [%] | % of enzyme activity at 1μM of 36 ±SD, CDK2/cyclinA (CDK2/cyclinA; duplicate) [%] | inhibition at 1 µM (CDK4/cyclinD3) [%] | % of enzyme activity at 1μM of 36 ±SD, CDK4/cyclinD3 (CDK4/cyclinD3; duplicate) [%] | inhibition at 1 µM (CDK9/cyclin T1) [%] | % of enzyme activity at 1μM of 36 ±SD, CDK9/cyclin T1 (CDK9/cyclin T1; duplicate) [%] | inhibition at 1 µM (JNK2α2) [%] | % of enzyme activity at 1μM of 36 ±SD, JNK2α2 (JNK2α2; duplicate) [%] | inhibition at 1 µM (MAPK2) [%] | % of enzyme activity at 1μM of 36 ±SD, MAPK2 (MAPK2; duplicate) [%]
1 | NC(=O)N1CC=C(c2ccnc(NC(=O)C3CC3)c2)C1 [Compound 11, 3-(2-(Cyclopropanecarboxamido)pyridin-4-yl)-2,5-dihydro-1H-pyrrole-1-carboxamide] | 141 ± 5 | 13 | significantly reducing the release | 0.53 ± 0.82 | – | – | – | – | – | – | – | – | – | –
2 | O=C(Nc1cc(-c2ccc(-c3ncon3)s2)ccn1)C1CC1 [Compound 36, N-(4-(5-(1,2,4-Oxadiazol-3-yl)thiophen-2-yl)pyridin-2-yl)cyclopropanecarboxamide] | 70 ± 1 | 14 | significantly reducing the release | 9.4 ± 0.89 | 63 | 37±1 | < 50 | 97±9 | 84 | 16±2 | < 50 | 100±7 | < 50 | 98±6

From PMC11378298 (ACS Chemical Neuroscience, 2024)
